Assay type in all cases: cell-based
The subject of data set [1] is Human RPE cells. Briefly: CellTox Green Cytotoxicity Assay. The following applies: FIG. 10, 1 μM compound preincubated 24 hours. The protocol: Human RPE cells were preincubated with 1 μM of compound DH381-2 and DH421 for 24 hours. Cell toxicity was measured by CellTox Green Cytotoxicity Assay in human RPE cells after treatment with TBHP and compounds DH381-2 and DH421.

In data set [2] the test system is Human RPE cells. Briefly: Mitochondrial function after TBHP (oxygen consumption rate, Seahorse XF analyzer). The following applies: FIGS. 9A-9B, 1 μM compound preincubated 18 hours, then 300 μM TBHP 24 hours; for ATP production compared to TBHP-treated group: p<0.001. The protocol:
Human RPE cells were preincubated with 1 μM of compound DH381-2 and DH421 for 18 hours and then treated with 300 μM tert-butyl hydroperoxide (TBHP) for 24 hours. Oxygen consumption rate (OCR) was determined by Seahorse XF analyzer to measure mitochondrial function.

Data set [3] has as its system Human RPE cells. The data set is described as follows: Cell viability on nitrite-modified extracellular matrix (ECM). The note with it: FIG. 8, 1 μM compound, seeded onto nitrite-modified ECM for 24 hours, p<0.05. The procedure:
Human RPE cells were treated with 1 μM of compound DH421 or DH381-2 and then seeded onto nitrite-modified ECM and untreated (normal) ECM for 24 hours. Protective effects of compound DH421 or DH381-2 on RPE cells seeded onto nitrite-modified ECM. *p<0.05.

Data set [4] concerns Human RPE cells. Briefly: Blue light damage, cell viability. The following applies: FIG. 7, 0.6 μM compound preincubated 24 hours, then blue light 156.7 LUX for 36 hours. The procedure:
Human RPE cells were preincubated with 0.6 μM of compound DH421 or DH381-2 for 24 hours and then exposed to blue light (156.7 LUX for 36 hours). Protective effect of compound DH421 or DH381-2 on human RPE cells exposed to blue light (156.7 LUX for 36 hours). * p<0.05, *** p<0.01.

The test system of data set [5] is Human ARPE-19 cells. The data set is described as follows: Blue light damage, cell viability (RealTime-Glo MT). The note with it: FIG. 4, 0.6 μM compound preincubated 24 hours, then blue light 156.7 LUX for 36 hours. The protocol: Human ARPE-19 cells were plated in 96-well plates for 24 hours in DMEM supplemented with FBS and antibiotics. The cells were preincubated with drug for 24 hours and then exposed to blue light (156.7 LUX for 36 hours). Cell viability was measured after 36 hours of blue light exposure using RealTime-Glo MT assays (Promega) with a BioTek FLx800 fluorescence reader (Bio Tek, Winooski, VT).
Human ARPE-19 cells (CRL-2302; American Type Culture Collection) were preincubated with 0.6 μM of compound DH421 or DH381-2 for 24 hours and then exposed to blue light (156.7 LUX for 36 hours). Protective effect of compound DH421 or DH381-2 on human ARPE-19 cells exposed to blue light (156.7 LUX for 36 hours). * p<0.05, *** p<0.01.

The subject of data set [6] is Human RPE cells. Briefly: TBHP oxidative stress-induced cell death, cell viability. The following applies: FIG. 6, 0.6 μM compound preincubated 24 hours, then 300 μM TBHP 24 hours, p<0.0001. The procedure:
Human RPE cells were preincubated with 0.6 μM of compound DH421 or DH381-2 for 24 hours and then exposed to 300 μM tert-butyl hydroperoxide (TBHP) to induce cell death for 24 hours. Protective effects on human RPE cells treated with DH421 and DH381-2. **** p<0.0001.

Data set [7] has as its system Human ARPE-19 cells. Briefly: Cell viability on nitrite-modified extracellular matrix (ECM). The note with it: FIG. 5, 1 μM, 3 μM, and 10 μM compound, seeded onto nitrite-modified ECM for 24 hours. The procedure: Immortalized human RPE (ARPE-19) cells were obtained from the ATCC, cultured, and maintained in DMEM (Invitrogen-Gibco, Life Technologies) containing 10% FBS, 100 IU/mL penicillin, 100 μg/mL streptomycin, and 100 μg/mL gentamicin (Invitrogen-Gibco, Life Technologies). These cells were incubated in a humidified atmosphere of 5% CO2 and 95% air at 37° C. ARPE-19 cells were grown on 24-well Transwell® permeable supports (Corning, Inc.) in 12-well plates or flat bottom 24-well plates for 6-8 weeks to allow the ECM to form. ARPE-19 cells were then removed by the addition of 20 mM ammonium hydroxide buffer for 20 min, and the ECM was washed with phosphate buffered saline (PBS). PBS was removed from the RPE-ECM plates and dried. Subsequently, 100 mM sodium nitrite was added to the ECM and incubated at 37° C. for 7 days. Plates were then washed with PBS and incubated with PBS for 4 hours. Finally, plates were washed with PBS to completely remove the nitrite. Cells are preincubated with drug for 24 hours and then seeded on nitrite-modified ECM for 24 hours. Cell viability was measured using RealTime-Glo MT assays (Promega) with a BioTek FLx800 fluorescence reader (Bio Tek, Winooski, VT). […]

For data set [8], the system named is Human ARPE-19 cells. Briefly: TBHP oxidative stress-induced cell death, cell viability (RealTime-Glo MT). The following applies: for cell viability after exposure to TBHP / protection from oxidative stress-induced cell death: p<0.0001; for protection from oxidative stress-induced cell death: FIG. 3, 0.6 μM compound preincubated 24 hours. The procedure: Immortalized human RPE cells (ARPE-19) obtained from the American Type Culture Collection (ATCC, Manassas, VA, USA) were cultured in Dulbecco's modified Eagle's medium (DMEM; Thermo Fisher Scientific, Waltham, MA) containing 10% fetal bovine serum (FBS), 100 IU/mL penicillin, 100 μg/mL streptomycin, 100 μg/mL gentamicin, and 2.5 μg/mL amphotericin B (Thermo Fisher Scientific).
Human ARPE-19 cells were plated in 96-well plates for 24 hours in DMEM supplemented with FBS and antibiotics. ARPE-19 cells were preincubated with either ciclopirox olamine (Sigma), compound 414 (Chemical Diversity, San Diego, CA), compound 434 (Chemical Diversity) or no compound for 24 hours and then exposed to varying concentrations of tert-butyl hydroperoxide (TBHP; Sigma-Aldrich, St. Louis, MO) the next day for 24 hours. Cell viability was measured the following day by RealTime-Glo™ MT cell viability assay (Promega, Madison, WI) using a BioTek FLx800™ fluorescence reader (BioTek, Winooski, VT).
Human ARPE-19 cells (CRL-2302; American Type Culture Collection) were preincubated with 0.9 μM of DH381-2 and DH421 for 24 hours and then exposed to 300 μM tert-butyl hydroperoxide (TBHP) to induce cell death for 24 hours.
Human ARPE-19 cells (CRL-2302; American Type Culture Collection) were preincubated with 0.9 μM of DH421 for 24 hours and then exposed to 250 μM tert-butyl hydroperoxide (TBHP) to induce cell death for 24 hours.
Human ARPE-19 cells (CRL-2302; American Type Culture Collection) with preincubated with 0.6 μM of compound DH421 or DH381-2 for 24 hours and then exposed to 300 μM tert-butyl hydroperoxide (TBHP) to induce cell death for 24 hours. Protective effects on human ARPE-19 cells treated with DH421 and DH381-2. **** p<0.0001.

The mark [9] stands for this setting: FIG. 1, 0.9 μM compound preincubated 24 hours, then 300 μM TBHP 24 hours.

Regarding `CCc1cccc(C)c1Nc1c(-c2cc(Br)ccc2O)nc2ccccn12` [DH421, 4-bromo-2-(3-((2-ethyl-6-methylphenyl)amino)imidazo[1,2-a]pyridin-2-yl)phenol], the cytotoxicity level entry with Human RPE cells [1] is reported as “not affected”. In addition, the “mitochondrial function (oxygen consumption rate) after oxidative stress” value in the data set on Human RPE cells [2] was “improved mitochondrial function”. For the same compound, in the data set with Human RPE cells [2], the “ATP production compared to TBHP-treated group” value was “increased ATP production”. Besides, the “cell viability on nitrite-modified ECM” value in the data set on Human RPE cells [3] and with Human ARPE-19 cells [7] was “enhanced” throughout. Moreover, the “protection from blue light damage” value with Human RPE cells [4] and in the data set on Human ARPE-19 cells [5] was “protected” throughout. Also, the “protection from oxidative stress-induced cell death” value in the data set on Human RPE cells [6] and in the data set on Human ARPE-19 cells [8] (then 300 μM TBHP 24 hours) was “protected” throughout. In addition, the “cell viability after exposure to TBHP” value with Human ARPE-19 cells [8] (setting [9]) was “significantly increased cell viability”; in the data set with Human ARPE-19 cells [8] (FIG. 2, 0.9 μM compound preincubated 24 hours, then 250 μM TBHP 24 hours) it was “significantly increased cell viability”. In the data set with Human ARPE-19 cells [8] (FIG. 2, 0.9 μM compound), the “effect on cell growth suppression” value is listed as “no effect on cell growth suppression”.

As to `Oc1ccc(Br)cc1-c1nc2ncccn2c1Nc1ccccn1` [DH381-2, 4-bromo-2-(3-(pyridin-2-ylamino)imidazo[1,2-a]pyrimidin-2-yl)phenol], in the data set with Human RPE cells [1], the cytotoxicity level result is given as “not affected”. Besides, the “mitochondrial function (oxygen consumption rate) after oxidative stress” value in the data set on Human RPE cells [2] is recorded as “improved mitochondrial function”. Further, the “ATP production compared to TBHP-treated group” value in the data set with Human RPE cells [2] is “increased ATP production”. The “cell viability on nitrite-modified ECM” value in the data set on Human RPE cells [3] and in the data set with Human ARPE-19 cells [7] was “enhanced” throughout. For the same compound, the “protection from blue light damage” value in the data set on Human RPE cells [4] and in the data set with Human ARPE-19 cells [5] was “protected” each time. In addition, the “protection from oxidative stress-induced cell death” value in the data set with Human RPE cells [6] and with Human ARPE-19 cells [8] (then 300 μM TBHP 24 hours) was “protected” throughout. In the data set on Human ARPE-19 cells [8] (setting [9]), the “cell viability after exposure to TBHP” value is reported as “significantly increased cell viability”.

The values above are taken from US20250288588A1, “SUBSTITUTED IMIDAZOPYRIDINES AND IMIDAZOPYRIMIDINES, AND USE OF SAME FOR TREATING, AMELIORATING, AND/OR PREVENTING RETINAL DEGENERATION” (Yale University, priority 2022, published 2025).
